# Results as given in patent US20240254089A1, “MODULATORS OF MAS-RELATED G-PROTEIN RECEPTOR X4 AND RELATED PRODUCTS AND METHODS” (ESCIENT PHARMACEUTICALS, INC., priority 2020, published 2024).
# Molecular target: T1, human MRGPR X4 (Homo sapiens, UniProt Q96LA9)
# T1 construct: expressed in transfected cells
# Test: MRGPR X4 antagonist activity, IP-One Gq HTRF assay in stably transfected HEK cells
# Type: cell-based
# Conditions: not given
# Procedure, shortened: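 IC50 comes from HTRF IP-1 accumulation in stably transfected HEK cells expressing human MRGPR X4. Compounds (10 uM top, 1:3 serial, 10 points) were co-incubated with 10 μM bilirubin, 20 μM deoxycholic acid or 100 μM conjugated bilirubin in LiCl-containing buffer, pH 8, for 1 h at 37 °C plus 30 min at room temperature.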
# T1 sequence (Q96LA9 whole entry): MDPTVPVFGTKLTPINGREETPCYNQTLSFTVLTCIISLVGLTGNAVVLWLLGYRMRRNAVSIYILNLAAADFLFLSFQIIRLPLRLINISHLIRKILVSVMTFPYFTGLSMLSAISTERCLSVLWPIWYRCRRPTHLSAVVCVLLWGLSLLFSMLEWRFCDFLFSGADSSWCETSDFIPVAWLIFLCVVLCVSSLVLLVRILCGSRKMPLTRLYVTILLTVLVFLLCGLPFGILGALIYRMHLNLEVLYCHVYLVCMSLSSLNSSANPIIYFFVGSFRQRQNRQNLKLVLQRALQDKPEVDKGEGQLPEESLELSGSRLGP
row,SMILES,IC50 [µM]
1,O=C(NCCc1nnc2n1CCCC2)c1nn(Cc2ccc(Cl)cc2)c2ccccc12 [Compound 25],< 0.1
2,O=C(NCCc1nnc2ccccn12)c1nn(Cc2ccn3ccnc3c2)c2ccccc12 [Compound 476],> 2.5
3,O=C(NCCc1nnc2ccccn12)c1nn(CCC2CCCC2)c2ccccc12 [Compound 504],0.501 to 1
4,O=C(O)c1nn(Cc2ccc(OC(F)(F)F)cc2)c2ccccc12 [Compound 321],1 to 2.5
5,O=C(NCCc1nnc2ccccn12)c1nn(Cc2cccn3ccnc23)c2ccccc12 [Compound 518],1 to 2.5
6,Cc1cccn2c(CCNC(=O)c3nn(Cc4ccc(Cl)cc4)c4ccccc34)nnc12 [Compound 4],< 0.1
7,O=C(NCCc1c[nH]c2ccccc12)c1nn(Cc2ccc(OC(F)(F)F)cc2)c2ccccc12 [Compound 93],1 to 2.5
8,O=C(NCCc1ccc(Cl)c(F)c1)c1cn(Cc2ccc(F)cc2)c2ccccc12 [Compound 198],0.501 to 1
9,COc1cc(Cn2nc(C(=O)O)c3ccccc32)ccc1Cl [Compound 329],> 2.5
10,Cc1cc(Cn2nc(C(=O)NCCc3nc4c(s3)CCCC4)c3ccccc32)ccc1Cl [Compound 68],0.1 to 0.5
11,O=C(NS(=O)(=O)c1ccc(Cl)cc1Cl)c1nn(Cc2cccc(F)c2)c2ccccc12 [Compound 261],0.501 to 1
12,COc1ccc2ccccc2c1Cn1nc(C(=O)NCCc2nnc3ccccn23)c2ccccc21 [Compound 453],1 to 2.5
13,Cc1ccc(Cn2cc(C(=O)NCc3ccncc3)c3ccccc32)cc1 [Compound 231],> 2.5
14,CC(C)(C)c1cnc(Cn2nc(C(=O)NCCc3nnc4ccccn34)c3ccccc32)o1 [Compound 415],0.501 to 1
15,COc1ccc2nc(Cn3nc(C(=O)NCCc4nnc5ccccn45)c4ccccc43)n(C)c2c1 [Compound 567],1 to 2.5
16,COc1ncccc1CCNC(=O)c1cn(Cc2ccc(Cl)cc2)c2ccccc12 [Compound 155],0.1 to 0.5
17,O=C(NCCc1cccnc1)c1nn(Cc2cccc(Cl)c2)c2ccccc12 [Compound 87],0.501 to 1
18,O=C(NCCc1coc2ccccc12)c1nn(Cc2ccc(Cl)cc2)c2ccccc12 [Compound 356],0.501 to 1
19,Cc1ncccc1CCNC(=O)c1cn(Cc2cccc(F)c2)c2ccccc12 [Compound 212],1 to 2.5
20,O=C(NCCc1nnc2ccccn12)c1nn(Cc2ccc(F)cc2)c2ccccc12 [Compound 51],0.1 to 0.5
21,Cc1ccc(Cn2cc(C(=O)NCCc3ccncc3)c3ccccc32)cc1 [Compound 172],0.1 to 0.5
22,Cc1cccc(Cn2cc(C(=O)NCCc3ccc(Cl)c(F)c3)c3ccccc32)c1 [Compound 222],1 to 2.5
23,Cc1ncccc1CCNC(=O)c1nn(Cc2ccc(Cl)cc2)c2ccccc12 [Compound 44],0.1 to 0.5
24,Cc1ccc(Cn2nc(C(=O)NCCc3c[nH]nn3)c3ccccc32)cc1 [Compound 73],0.501 to 1
25,Cc1cccc(CCNC(=O)c2cn(Cc3ccc(Cl)cc3)c3ccccc23)n1 [Compound 153],< 0.1
26,Cc1ccc(Cn2nc(C(=O)NCCc3nnc4n3CCCCC4)c3c(F)cccc32)cc1 [Compound 30],0.1 to 0.5
27,O=C(NCCc1nnc2ccccn12)c1nn(Cc2ccc(Cl)cc2)c2c(Cl)cccc12 [Compound 539],< 0.1
28,Cc1ccncc1CCNC(=O)c1cn(Cc2ccc(Cl)cc2)c2ccccc12 [Compound 161],0.1 to 0.5

row,SMILES,IC50 [µM]
1,O=C(NCCc1ccc(Cl)c(F)c1)c1cn(CCN2CCC(F)(F)CC2)c2ccccc12 [Compound 223],1 to 2.5
2,Cn1cc2cccc(CNC(=O)c3nn(Cc4ccc(Cl)cc4)c4ccccc34)c2n1 [Compound 428],> 2.5
3,O=C(NCCc1nnc2ccccn12)c1nn(Cc2ccc(Cl)cc2)c2cccc(Br)c12 [Compound 566],0.1 to 0.5
4,Cn1c(Cn2nc(C(=O)NCCc3nnc4ccccn34)c3ccccc32)nc2ccccc21 [Compound 544],0.1 to 0.5
5,O=C(NCCn1cccc1)c1nn(Cc2ccc(Cl)cc2)c2ccccc12 [Compound 349],0.501 to 1
6,O=C(O)c1nn(Cc2ccc(Cl)cc2)c2ccc(Cl)cc12 [Compound 320],1 to 2.5
7,Cn1ccc(CCNC(=O)c2nn(Cc3ccc(Cl)cc3)c3ccccc23)n1 [Compound 48],0.1 to 0.5
8,O=C(NCc1cccc(F)c1F)c1nn(Cc2ccc(Cl)cc2)c2ccccc12 [Compound 360],> 2.5
9,CC(=O)c1ccc(Cn2cc(C(=O)NCCc3cccnc3)c3ccccc32)cc1 [Compound 191],0.501 to 1
10,Cc1occc1Cn1nc(C(=O)NCCc2nnc3ccccn23)c2ccccc21 [Compound 520],> 2.5
11,Cc1cccn2c(CCNC(=O)c3nn(Cc4ccc(Cl)cc4)c4ccc(F)cc34)nnc12 [Compound 1],< 0.1
12,O=C(NCCc1ccc(C(F)(F)F)nc1)c1nn(Cc2ccc(Cl)cc2)c2ccccc12 [Compound 86],0.501 to 1
13,COc1ccc(Cn2cc(C(=O)NCCc3cccnc3)c3ccccc32)cc1 [Compound 176],0.1 to 0.5
14,O=C(NCCn1nnc2ccccc21)c1nn(Cc2ccc(Cl)cc2)c2ccccc12 [Compound 361],< 0.1
15,O=C(NCCc1ccncc1)c1cn(Cc2cccc(F)c2)c2ccccc12 [Compound 219],1 to 2.5
16,Cc1ccc(Cn2cc(C(=O)NCCc3cccnc3)c3ccccc32)cc1 [Compound 160],0.1 to 0.5
17,O=C(NCCc1cccnc1)c1cn(Cc2ccc(OC(F)(F)F)cc2)c2ccccc12 [Compound 173],0.1 to 0.5
18,O=C(NCCc1ccc(C(F)(F)F)nc1)c1cn(Cc2ccc(Cl)cc2)c2ccccc12 [Compound 197],0.501 to 1
19,Cc1ccc(Cn2cc(C(=O)NCCc3nc4ccccc4s3)c3ccccc32)cc1 [Compound 192],0.501 to 1
20,COc1cc(Cl)ccc1Cn1nc(C(=O)NCCc2cccnc2)c2ccccc21 [Compound 114],1 to 2.5
21,O=C(NCCc1nnc2ccccn12)c1nn(Cc2ncco2)c2ccccc12 [Compound 440],> 2.5
22,Cc1cccnc1CCNC(=O)c1nn(Cc2ccc(Cl)cc2)c2ccccc12 [Compound 77],0.501 to 1
23,Cc1ccc2c(c1)nc(Cn1nc(C(=O)NCCc3nnc4ccccn34)c3ccccc31)n2C [Compound 570],> 2.5
24,N#Cc1ccc2c(C(=O)NCCc3nnc4ccccn34)nn(Cc3ccc(Cl)cc3)c2c1 [Compound 542],< 0.1
25,O=C(NCc1ccc(O)cc1)c1nn(Cc2ccc(Cl)cc2)c2ccccc12 [Compound 376],0.501 to 1
26,CC(C)c1ccc(Cn2nc(C(=O)NCCc3nc4c(s3)CCCC4)c3ccccc32)cc1 [Compound 108],1 to 2.5
27,O=C(NCc1ncc(-c2ccccc2)[nH]1)c1nn(Cc2ccc(Cl)cc2)c2ccccc12 [Compound 429],0.501 to 1

# Same assay, conditions: versus 20 μM deoxycholic acid agonist; HEK cells expressing human MRGPR X4; read-out: MRGPRX4 Antagonist Activity
row,SMILES,IC50 [µM]
1,O=C(NCCc1nnc2ccccn12)c1nn(CCCOc2ccc(Cl)cc2)c2ccccc12 [Compound 470],> 2.5
2,Cc1ccc(C(=O)Cn2nc(C(=O)NCCc3nnc4ccccn34)c3ccccc32)cc1 [Compound 468],1 to 2.5
3,Cc1cc(Cl)ccc1Cn1nc(C(=O)O)c2ccccc21 [Compound 324],> 2.5
4,N#Cc1ccc(S(=O)(=O)NC(=O)c2nn(Cc3cccc(F)c3)c3ccccc23)cc1Cl [Compound 301],> 2.5
5,COc1ccccc1NC(=O)CS(=O)(=O)c1cn(Cc2ccc(Cl)cc2)c2ccccc12 [Compound 246],1 to 2.5
6,O=C(NS(=O)(=O)c1ccccn1)c1nn(Cc2ccc(Cl)cc2)c2ccccc12 [Compound 291],1 to 2.5
7,O=C(NS(=O)(=O)Cc1ccccn1)c1nn(Cc2ccc(Cl)cc2)c2ccccc12 [Compound 299],> 2.5
8,O=C(NCCc1nnc(C2CCOCC2)[nH]1)c1nn(Cc2cccc(F)c2)c2ccccc12 [Compound 129],> 2.5
9,Cc1cccc(S(=O)(=O)NC(=O)c2cn(Cc3ccc(OC(F)F)cc3)c3ccccc23)c1 [Compound 313],> 2.5
10,Cc1cc(S(=O)(=O)NC(=O)c2nn(Cc3ccc(OC(F)F)cc3)c3ccccc23)ccc1C#N [Compound 259],0.1 to 0.5
